Measured values reported in patent publication US4604239A, “Antibiotics” (Eli Lilly and Company, priority 1985, dated 1986).
Converted amounts (≈) assume the structure as drawn. Where two headings read alike, the source gives them in different places.

Experiments:
Propionibacterium acnes = assay: agar-dilution MIC; format: cell-based
Description: Antibiotic A41030 factors A, B and C have also been tested and found to be active against a genus of anaerobic bacteria identified as Propionibacterium acnes.

Staphylococcus aureus = assay: agar-dilution MIC; format: cell-based
Bacteroides vulgatis [1] = assay: agar-dilution MIC; format: cell-based; details: Bacteroides vulgatis 1211; Table 14
Peptococcus prevoti [2] = assay: agar-dilution MIC; format: cell-based
Clostridium perfringens = format: cell-based; details: Clostridium perfringens 81; Table 14
Staph. aureus = assay: experimental bacterial infection in mice; format: in vivo; details: two doses subcutaneously
Protocol: All of the A41030 factors tested have shown in vivo antimicrobial activity against experimental bacterial infections. When two doses of test compound were administered subcutaneously to mice in illustrative infections, the activity observed is measured as an ED50 value [effective dose in mg./kg. to protect fifty percent of the test animals: See Warren Wick, et al., J. Bacteriol. 81, 233-235 (1961)].

S. pyogenes = assay: experimental bacterial infection in mice; format: in vivo
[3] = system: Fusobacterium necrophorum; assay: agar-dilution MIC; format: cell-based; details: Fusobacterium necrophorum 6054A; Table 14
solubility = format: physicochemical
[4] = system: Streptococcus sp. (Group D); assay: agar-dilution MIC; format: cell-based
Description: (§1) The agar-dilution procedure described by the International Collaborative study (ICS) group was used to determine the minimum inhibitory concentrations (MIC's).

Streptococcus pyogenes = assay: agar-dilution MIC; format: cell-based; details: Streptococcus pyogenes C203; Table 17
Description: as §1

Streptococcus pneumoniae = assay: agar-dilution MIC; format: cell-based
Description: as §1

[5] = system: Bacteroides thetaiotaomicron; format: cell-based
Description: as §1

Bacteroides corrodens [6] = assay: agar-dilution MIC; format: cell-based; details: Bacteroides corrodens 1874; Table 14
electrometric titration = format: physicochemical; details: electrometric titration in 66% dimethylformamide in water
Description: Antibiotic A41030 factor A is a white, crystalline solid.

[7] = system: Peptostreptococcus intermedius; assay: agar-dilution MIC; format: cell-based
Fusobacterium symbiosum = assay: agar-dilution MIC; format: cell-based; details: Fusobacterium symbiosum 1470; Table 14
Clostridium septicum = assay: agar-dilution MIC; format: cell-based; details: Clostridium septicum 1128; Table 14
Peptococcus constellatus = assay: agar-dilution MIC; format: cell-based; details: Pc. constellatus 1468; Table 15
Protocol: (§2) The MIC values were determined by the agar-dilution method, and are recorded in Table 15, which follows.

[8] = system: Peptococcus asaccharolyticus; assay: agar-dilution MIC; format: cell-based
Protocol: as §2

Peptococcus prevoti [9] = assay: agar-dilution MIC; format: cell-based; details: Table 15
Protocol: as §2

Peptococcus magnus = assay: agar-dilution MIC; format: cell-based; details: Pc. magnus 1477; Table 15
Protocol: as §2

[10] = system: Peptostreptococcus anaerobius; assay: agar-dilution MIC; format: cell-based
[11] = system: Bacteroides melaninogenicus; assay: agar-dilution MIC; format: cell-based; details: Bacteroides melaninogenicus 2736; Table 14
Bacteroides vulgatis [12] = assay: agar-dilution MIC; format: cell-based; details: B. vulgatis 1563; 24-hour; Table 12
Description: (§3) The A41030 antibiotics, factors A, B, and C, are active against a genus of anaerobic bacteria identified as Bacteroides sp., the 24-hour MIC values being determined by the agar-dilution method, and are set forth in Table 12, which follows.

Bacteroides corrodens [13] = assay: agar-dilution MIC; format: cell-based; details: B. corrodens 1874; 24-hour; Table 12
Description: as §3

N[C@H]1C(=O)N[C@@H]2Cc3ccc(c(Cl)c3)Oc3cc4cc(c3O)Oc3ccc(cc3Cl)[C@@H](O)[C@@H]3NC(=O)C(NC(=O)[C@@H]4NC(=O)[C@@H](NC2=O)c2cc(O)cc(c2)Oc2cc1ccc2O)c1ccc(O)c(c1)-c1c(O)cc(O)cc1[C@@H](C(=O)O)NC3=O [A41030 factor B]
MIC (Propionibacterium acnes; P. acnes 44, 24-hour, Table 13): 0.06 µg/mL (≈ 0.05 µM) | MIC (Propionibacterium acnes; P. acnes 79, 24-hour, Table 13): 0.06 µg/mL (≈ 0.05 µM) | MIC (Propionibacterium acnes; P. acnes 101, 24-hour, Table 13): 0.06 µg/mL (≈ 0.05 µM) | MIC (Propionibacterium acnes; P. acnes 103, 24-hour, Table 13): 0.06 µg/mL (≈ 0.05 µM) | MIC (Propionibacterium acnes; P. acnes 104, 24-hour, Table 13): 0.25 µg/mL (≈ 0.209 µM) | MIC (Propionibacterium acnes; P. acnes 105, 24-hour, Table 13): 0.06 µg/mL (≈ 0.05 µM) | MIC (Propionibacterium acnes; P. acnes 106, 24-hour, Table 13): 0.06 µg/mL (≈ 0.05 µM) | MIC (Propionibacterium acnes; P. acnes 107, 24-hour, Table 13): 0.06 µg/mL (≈ 0.05 µM) | MIC (Propionibacterium acnes; P. acnes 5170, 24-hour, Table 13): ≤ 0.03 µg/mL | MIC (Propionibacterium acnes; P. acnes 5176, 24-hour, Table 13): 0.06 µg/mL (≈ 0.05 µM) | MIC (Propionibacterium acnes; P. acnes 5187, 24-hour, Table 13): 0.06 µg/mL (≈ 0.05 µM) | MIC (Propionibacterium acnes; P. acnes 5191, 24-hour, Table 13): 0.06 µg/mL (≈ 0.05 µM) | MIC (Propionibacterium acnes; P. acnes 5197, 24-hour, Table 13): 0.06 µg/mL (≈ 0.05 µM) | MIC (Propionibacterium acnes; P. acnes 5226, 24-hour, Table 13): 0.5 µg/mL (≈ 0.417 µM) | MIC (Propionibacterium acnes; P. acnes 5227, 24-hour, Table 13): 0.06 µg/mL (≈ 0.05 µM) | MIC (Propionibacterium acnes; P. acnes 5228, 24-hour, Table 13): 0.5 µg/mL (≈ 0.417 µM) | MIC (Propionibacterium acnes; P. acnes 5229, 24-hour, Table 13): 0.25 µg/mL (≈ 0.209 µM) | MIC (Propionibacterium acnes; P. acnes 5292, 24-hour, Table 13): 0.06 µg/mL (≈ 0.05 µM) | MIC (Propionibacterium acnes; Propionibacterium acnes 79, Table 14): 16 µg/mL (≈ 13.3 µM) | MIC (Staphylococcus aureus; Staphylococcus aureus 3055, end point after 24 hours, Table 18): 0.06 µg/mL (≈ 0.05 µM) | MIC (Staphylococcus aureus; Staphylococcus aureus V138, end point after 24 hours, Table 18): 0.06 µg/mL (≈ 0.05 µM) | MIC (Staphylococcus aureus; in µg/mL): 0.25 | MIC (Bacteroides vulgatis [1]): 32 µg/mL (≈ 26.7 µM) | MIC (Peptococcus prevoti [2]; Pc. prevoti 1281, Table 15): 0.5 µg/mL (≈ 0.417 µM) | MIC (Peptococcus prevoti [2]; Peptococcus prevoti 1281, Table 14): ≤ 0.25 µg/mL | MIC (Clostridium perfringens): 0.5 µg/mL (≈ 0.417 µM) | ED50 (Staph. aureus): < 0.43 mg/kg | ED50 (S. pyogenes; S. pyogenes infection in mice, two doses subcutaneously): 1.4 mg/kg | in vivo oral activity (S. pyogenes; against S. pyogenes in mice, oral): > 300 mg./kg. X 2 | MIC [3]: 8 µg/mL (≈ 6.67 µM) | solubility (solvents) (solubility): soluble in the same solvents as factor A | MIC ([4]; Streptococcus sp. Group D 2041, end point after 24 hours, Table 18): 0.5 µg/mL (≈ 0.417 µM) | MIC ([4]; Streptococcus sp. Group D 2058, end point after 24 hours, Table 18): 0.5 µg/mL (≈ 0.417 µM) | MIC ([4]; Streptococcus sp. Group D 8043, end point after 24 hours, Table 18): 0.25 µg/mL (≈ 0.209 µM) | MIC ([4]; Streptococcus sp. Group D 9901, end point after 24 hours, Table 18): 1 µg/mL (≈ 0.834 µM) | MIC ([4]; Streptococcus sp. Group D 9960, Table 17): 1 µg/mL (≈ 0.834 µM) | MIC ([4]; Streptococcus sp. Group D 9960, end point after 24 hours, Table 18): 0.5 µg/mL (≈ 0.417 µM) | MIC ([4]; Streptococcus sp. Group D 12253F, end point after 24 hours, Table 18): 0.5 µg/mL (≈ 0.417 µM) | MIC ([4]; Streptococcus sp. Group D Mx161, end point after 24 hours, Table 18): 0.25 µg/mL (≈ 0.209 µM) | MIC ([4]; Streptococcus sp. Group D X66, Table 17): 1 µg/mL (≈ 0.834 µM) | MIC ([4]; Streptococcus sp. Group D X66, end point after 24 hours, Table 18): 0.25 µg/mL (≈ 0.209 µM) | MIC (Streptococcus pyogenes): 0.25 µg/mL (≈ 0.209 µM) | MIC (Streptococcus pneumoniae; Streptococcus pneumoniae B1-438, end point after 24 hours, Table 18): 0.5 µg/mL (≈ 0.417 µM) | MIC (Streptococcus pneumoniae; Streptococcus pneumoniae Park I, Table 17): 0.5 µg/mL (≈ 0.417 µM) | MIC ([5]; B. thetaiotaomicron 1438, 24-hour, Table 12): 32 µg/mL (≈ 26.7 µM) | MIC ([5]; Bacteroides thetaiotaomicron 1438, Table 14): 32 µg/mL (≈ 26.7 µM) | MIC (Bacteroides corrodens [6]): 64 µg/mL (≈ 53.4 µM) | possibly additional pKa's (electrometric titration): > 10 | MIC ([7]; Peptostreptococcus intermedius 1264, Table 14): 0.5 µg/mL (≈ 0.417 µM) | MIC ([7]; Ps. intermedius 1264, Table 15): ≤ 0.03 µg/mL | MIC ([7]; Ps. intermedius 1524, Table 15): 0.25 µg/mL (≈ 0.209 µM) | MIC ([7]; Ps. intermedius 1624, Table 15): 0.5 µg/mL (≈ 0.417 µM) | MIC (Fusobacterium symbiosum): 1.0 µg/mL (≈ 0.834 µM) | MIC (Clostridium septicum): 4 µg/mL (≈ 3.34 µM) | MIC (Peptococcus constellatus): 0.5 µg/mL (≈ 0.417 µM) | MIC ([8]; Pc. asaccharolyticus 1344, Table 15): 0.5 µg/mL (≈ 0.417 µM) | MIC ([8]; Peptococcus asaccharolyticus 1302, Table 14): ≤ 0.25 µg/mL | MIC (Peptococcus prevoti [9]; Pc. prevoti 1293): 0.25 µg/mL (≈ 0.209 µM) | MIC (Peptococcus prevoti [9]; Pc. prevoti 1407): 0.5 µg/mL (≈ 0.417 µM) | MIC (Peptococcus magnus): 0.25 µg/mL (≈ 0.209 µM) | MIC ([10]; Peptostreptococcus anaerobius 1428, Table 14): ≤ 0.25 µg/mL | MIC ([10]; Ps. anaerobius 8, Table 15): 0.25 µg/mL (≈ 0.209 µM) | MIC ([10]; Ps. anaerobius 52, Table 15): 0.5 µg/mL (≈ 0.417 µM) | MIC ([10]; Ps. anaerobius 59, Table 15): 0.25 µg/mL (≈ 0.209 µM) | MIC ([10]; Ps. anaerobius 1418, Table 15): 0.06 µg/mL (≈ 0.05 µM) | MIC ([10]; Ps. anaerobius 1428, Table 15): 0.25 µg/mL (≈ 0.209 µM) | MIC ([10]; Ps. anaerobius 1451, Table 15): 0.25 µg/mL (≈ 0.209 µM) | MIC [11]: 4 µg/mL (≈ 3.34 µM) | MIC (Bacteroides vulgatis [12]): 32 µg/mL (≈ 26.7 µM) | MIC (Bacteroides corrodens [13]): 32 µg/mL (≈ 26.7 µM)
